Key:
[1] = Particle size distribution of SHR0302 by laser diffraction (Malvern, Hydro MV); assay type: physicochemical; details: SHR0302 used in Example 1; wet dispersion in ethyl acetate; FIG. 1
Source text: In the pharmaceutical compositions of the present invention, the active ingredient is present as small particles. Particle size of the drug can be assessed using laser diffraction methods. Laser diffraction is recognized by standards and guidance agencies including ISO and ASTM and is widely used to determine particle size distributions. In conducting the assessment, the sample is passed through a laser beam, which results in laser light scattered at a range of angles. Detectors placed at fixed angles measure the intensity of light scattered at that position. A mathematical model is then applied to generate a particle size distribution. The particle size values reported herein are determined by using a liquid or wet dispersion method.
In particle size determinations, the median value is defined as the value where half of the population resides above this point, and half resides below this point. For particle size distributions the median is called the D50. The D50 is the size that splits the distribution with half above and half below this diameter. The distribution width may also be characterized by citing one, two or three values on the x-axis, typically some combination of the D10, D50, and D90. The D50, the median, has been defined above as the diameter where half of the population lies below this value. Similarly, 90 percent of the distribution lies below the D90, and 10 percent of the population lies below the D10.
A pharmaceutical composition comprising 3% SHR0302 suspended in dimethicone was prepared. The primary particle size distribution of the SHR0302 is characterized by a D10 value of less than about 0.25 μm; a D50 value of less than about 0.7 μm; and a D90 value of less than about 5 μm. The pharmaceutical composition was a transparent solution due to the particles being too small to scatter visible light. A Malvern Metasizer Model 3000 using the Hydro MV dispersion unit was used to determine the particle size distribution profile of SHR0302. […]

JAK1 = JAK1 (Homo sapiens, UniProt P23458); details: cited from earlier work
Sequence of JAK1 (P23458 whole entry, species assumed): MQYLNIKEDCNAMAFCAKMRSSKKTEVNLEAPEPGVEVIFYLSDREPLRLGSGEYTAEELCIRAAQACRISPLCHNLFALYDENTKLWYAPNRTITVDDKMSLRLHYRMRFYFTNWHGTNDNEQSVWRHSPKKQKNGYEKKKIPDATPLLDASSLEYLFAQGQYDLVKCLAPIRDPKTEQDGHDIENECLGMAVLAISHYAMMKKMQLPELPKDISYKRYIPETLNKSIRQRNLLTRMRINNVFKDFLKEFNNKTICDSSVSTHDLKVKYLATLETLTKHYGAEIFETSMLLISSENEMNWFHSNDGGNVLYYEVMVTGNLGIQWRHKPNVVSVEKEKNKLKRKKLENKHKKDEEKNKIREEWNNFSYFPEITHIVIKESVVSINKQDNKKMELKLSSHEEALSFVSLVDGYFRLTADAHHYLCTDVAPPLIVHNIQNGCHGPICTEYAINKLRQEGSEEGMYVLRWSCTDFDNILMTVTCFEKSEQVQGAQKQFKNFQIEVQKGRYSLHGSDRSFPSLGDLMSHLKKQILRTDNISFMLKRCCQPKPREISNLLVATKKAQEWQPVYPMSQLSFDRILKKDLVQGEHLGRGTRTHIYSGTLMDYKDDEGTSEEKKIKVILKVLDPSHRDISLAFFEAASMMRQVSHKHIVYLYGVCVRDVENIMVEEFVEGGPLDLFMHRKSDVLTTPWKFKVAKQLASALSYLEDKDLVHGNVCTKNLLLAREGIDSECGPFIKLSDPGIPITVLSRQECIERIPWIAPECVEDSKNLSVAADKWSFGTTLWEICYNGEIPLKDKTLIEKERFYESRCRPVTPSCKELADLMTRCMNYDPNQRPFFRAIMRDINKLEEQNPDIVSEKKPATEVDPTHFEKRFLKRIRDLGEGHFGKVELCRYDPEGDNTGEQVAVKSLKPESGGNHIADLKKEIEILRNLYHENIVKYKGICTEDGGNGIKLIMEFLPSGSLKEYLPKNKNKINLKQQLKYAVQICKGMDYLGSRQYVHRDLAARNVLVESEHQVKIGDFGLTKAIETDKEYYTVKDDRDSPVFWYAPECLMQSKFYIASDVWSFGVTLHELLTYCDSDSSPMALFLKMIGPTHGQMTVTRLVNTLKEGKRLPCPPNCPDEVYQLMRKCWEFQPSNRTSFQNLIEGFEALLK

women with acne = details: orally administered; cited from earlier work

primary particle size distribution D10 value [1]	primary particle size distribution D50 value [1]	primary particle size distribution D90 value [1]	Structure (SMILES)	selectivity for JAK1 over JAK2 (JAK1)	efficacy in the treatment of women with acne (women with acne)
less than 0.25 μm	less than 0.7 μm	less than 5 μm	COc1nsc(NC(=O)N2C[C@H]3C[C@H](N(C)c4ncnc5[nH]ccc45)C[C@H]3C2)n1 [SHR0302, (3aR,5S,6aS)—N-(3-methoxyl-1,2,4-thiadiazol-5-yl)-5-(methyl(7H-pyrrolo[2,3-d]pyrimidin-4-yl)amino)hexahydrocyclopenta[c]pyrrole-2(1H)-carboxamide]	high selectively for JAK1 over JAK2	–
–	–	–	CC(=O)S[C@@H]1CC2=CC(=O)CC[C@]2(C)[C@H]2CC[C@@]3(C)[C@@H](CC[C@@]34CCC(=O)O4)[C@H]12 [spironolactone, 17-hydroxy-7α-mercapto-3-oxo-17α-pregn-4-ene-21-carboxylic acid γ-lactone acetate]	–	efficacious

— US20220152033A1, “COMPOSITIONS AND METHODS FOR DEEP DERMAL DRUG DELIVERY” (ARCUTIS BIOTHERAPEUTICS, INC., priority 2020, published 2022)
